Reference: patent publication US11202815B2, “Composition for preventing, treating or improving prostate disease containing acanthopanax sessiliflorus, phragmites rhizome, and pinus densiflora extracts as active ingredient” (GENOME & MEDICINE CO., LTD., priority 2017, dated 2021)

System: 5α-reductase type 2 (SRD5A2)
Assay: Western blotting of 5α-reductase type 2 (SRD5A2) protein expression level
Format: cell-based
Details: 0.40 mM, cultured for 24 hours, FIG. 8
Procedure: 5α-reductase had total three types of subtypes (types 1, 2 and 3), in which types 1 and 3 have been studied for diseases such as male hair loss or acne and type 2 was directly associated with benign prostatic hyperplasia.
As a result, in Example 6, a 5α-reductase type 2 (SRD5A2) protein expression level was analyzed by Western blotting to confirm 5α-reductase inhibitory activity.
Specifically, the cells were divided at a concentration of 2.0×10^5 cell/well and treated with 100 μg/ml of the Acanthopanax sessiliflorus extract, 600 μg/ml of the Pinus densiflora extract, 600 μg/ml of the Phragmites rhizome extract, or 350 μg/ml of the complex extract (Extract 4) obtained by mixing the extracts at 4:2:1 in a PRMI1640 medium containing 1% fetal bovine serum (FBS), and then cultured for 24 hours.
Finasteride, which has been sold as a 5α-reductase inhibitor on the market, was used as a positive control.
Then, the cultured cells were lysed, filtered with a 0.45 μm mesh, and subjected to Western blotting according to a procedure shown in FIG. 7.
Specifically, a primary antibody (Anti-SRD5A2, Sigma) was diluted to 1:200 and treated, and a secondary antibody (m-IgGP-HRP, Santa Cruz) was diluted to 1:3000 and treated, and then the expression levels of 5α-reductase type 2 according to treatment of each extract and each compound were confirmed.

Compound | expression levels of 5α-reductase type 2
COc1cc([C@@H]2OC[C@@H]3[C@H]2CO[C@H]3c2cc(OC)c(O[C@@H]3O[C@H](CO)[C@@H](O)[C@H](O)[C@H]3O)c(OC)c2)cc(OC)c1O[C@@H]1O[C@H](CO)[C@@H](O)[C@H](O)[C@H]1O [acanthoside D] | significantly reduced
O=C(O)/C=C/c1ccc(O)cc1 [p-coumaric acid] | significantly reduced
